Test results published in ChEMBL document CHEMBL1201862, “PubChem BioAssay data set” (2004).
Activity calls are given as the source filed them.

How the values were obtained:
[1] = target: T1, Luciferin 4-monooxygenase (Photinus pyralis, UniProt P08659); experiment: inhibition of purified Photinus pyralis luciferase – biochemical, luminescence, dose response (AID 1891)
[2] = Luminescence Cell-Based Dose Confirmation HTS to Identify Inhibitors of Platelet Dense Granule Release. [Related pubchem assays: 1663 (Primary HTS), 1678 (Summary of Project)]; assay type: functional
[3] = target: T1, Luciferin 4-monooxygenase; experiment: Counter Screen for Luciferase-based Assay Positives. [Related pubchem assays: 620, 618, 411 ]
HT-1080 = experiment: HT1080 cell viability loss – fluorescence readout (AID 620); assay type: functional, cell-based; conditions: Homo sapiens
Vero = experiment: viability of Vero cells under compound – cytotoxicity control for flavivirus capping enzyme inhibitors (AID 588742); assay type: functional; conditions: Chlorocebus sabaeus
[4] = CCR5-tropic HIV-1 fusion blockers – cell-based, CCR5-tropic Env, dose response (AID 2279); assay type: functional
Genome polyprotein = Genome polyprotein (dengue virus type 2, UniProt P29990); experiment: flavivirus cap methylation enzyme inhibition – biochemical, confirmation dose response, primary screen (AID 588689); assay type: functional
[5] = target: Neurotensin receptor type 1 (Homo sapiens, UniProt P30989); assay type: functional;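 note: Image-based confirmatory dose-response assay measuring agonist activity at NTR1; NTR1-expressing U2OS osteosarcoma cells imaged for beta-arrestin GFP spot formation; agonist potency where compounds increase beta-arrestin recruitment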
INS1 = experiment: INS-1E survival protection against cytokine death – cell-based, luminescence, retest, dose response (AID 449756); assay type: functional; conditions: Rattus norvegicus;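 note: cell death triggered by IL-1 beta plus TNF-alpha plus IFN-gamma mixture; protective hits raise ATP signal compared with cytokine alone wells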
[6] = target: 5-hydroxytryptamine receptor 1E (Homo sapiens, UniProt P28566); experiment: Counterscreen assay for S1P3 antagonists: Dose response cell-based high throughput screening assay to identify antagonists of the 5-Hydroxytryptamine Receptor Subtype 1E (5HT1E). [Related pubchem assays: 1429, 485 ]; assay type: functional
[7] = Luminescence Cell-Based Dose Response HTS to Identify Activators of Luciferase Translation or Activity in H4 […] Cells. [Related pubchem assays: 1829 (Project Summary), 1814 (Primary HTS)]; assay type: functional
[8] = blockers of bursicon-stimulated LGR2 cAMP reporter – cell-based, HEK293, CRE-luciferase reporter, cherry pick, set 2, dose response (AID 743343); assay type: functional;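 note: transfected cells were stimulated with diluted bursicon conditioned medium after compound addition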
H4 = experiment: Luminescence Cell-Based Dose Response HTS to Identify Activators of 5'UTR Stem-Loop Driven Prion Protein mRNA Translation in H4 Neuroglioblastoma Cells. [Related pubchem assays: 1829 (Project Summary), 1814 (Primary HTS)]; assay type: functional; conditions: Homo sapiens
[9] = HEK-293T viability loss after treatment – luminescence, T-cell screen hits, cytotoxicity control for TCR NF-kB inhibitor project, dose response (AID 489026); assay type: functional, cell-based;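 note: cells exposed to compound about 14 hours before the viability readout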
[10] = toxicity toward HepG2 liver cells – cell-based, plate reader, cherry-pick, antagonist series, cytotoxicity control, dose response (AID 743416); assay type: functional
[11] = target: Sphingosine 1-phosphate receptor 3 (Homo sapiens, UniProt Q99500); experiment: Dose response cell-based high throughput screening assay for antagonists of the Sphingosine 1-Phosphate Receptor 3 (S1P3). [Related pubchem assays: 1429, 485 ]; assay type: functional
[12] = Luminescence Cell-Based Dose Confirmation HTS to Identify Activators of 5'UTR Stem-Loop Driven Alpha-Synuclein mRNA Translation in H4 Neuroglioblastoma Cells. [Related pubchem assays: 1829 (Project Summary), 1814 (Primary HTS)]; assay type: functional
[13] = blockade of melanocortin 4 receptor signaling – cell-based, plate reader, cherry pick, counter-screen for LGR2 antagonist project, dose response (AID 743444); assay type: functional;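 note: transfected HEK 293 cells stimulated with alpha-MSH peptide; potency of inhibitors of the alpha-MSH evoked signal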
Estrogen receptor = target: T2, Estrogen receptor (Homo sapiens, UniProt P03372); experiment: blockers of SRC-3 recruitment to ERα – biochemical, ELISA, streptavidin-HRP readout, orthogonal assay, confirmation (AID 1079)
T2 sequence (P03372 whole entry): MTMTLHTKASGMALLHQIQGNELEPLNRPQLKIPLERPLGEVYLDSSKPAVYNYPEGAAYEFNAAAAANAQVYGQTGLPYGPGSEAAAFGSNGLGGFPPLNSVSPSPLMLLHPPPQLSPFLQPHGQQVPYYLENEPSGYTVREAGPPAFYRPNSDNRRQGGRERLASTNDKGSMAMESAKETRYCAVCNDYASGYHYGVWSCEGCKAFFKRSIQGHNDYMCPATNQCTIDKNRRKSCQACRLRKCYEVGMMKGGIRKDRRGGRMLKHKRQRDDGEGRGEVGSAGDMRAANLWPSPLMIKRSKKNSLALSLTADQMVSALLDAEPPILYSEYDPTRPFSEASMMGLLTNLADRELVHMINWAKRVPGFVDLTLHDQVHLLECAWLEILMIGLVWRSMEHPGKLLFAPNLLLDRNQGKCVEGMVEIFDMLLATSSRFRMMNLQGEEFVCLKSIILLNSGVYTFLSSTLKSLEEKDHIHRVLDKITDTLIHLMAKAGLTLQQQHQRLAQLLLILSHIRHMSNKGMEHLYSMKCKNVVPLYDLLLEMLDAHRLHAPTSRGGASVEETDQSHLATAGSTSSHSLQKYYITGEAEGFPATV

[14] = Luminescence Cell-Based Dose Response HTS to Identify Inhibitors of 5'UTR Stem-Loop Driven Prion Protein mRNA Translation in H4 Neuroglioblastoma Cells. [Related pubchem assays: 1827 (Project Summary), 1813 (Primary HTS)]; assay type: functional
[15] = alpha-synuclein stem-loop luciferase translation blockers – H4 neuroglioma cells, luminescence, confirmation (AID 1988); assay type: functional, cell-based
[16] = Luminescence-based counterscreen assay for KLF5 inhibitors: dose response cell-based high throughput screening assay to identify cytotoxic compounds using the IEC-6 intestinal epithelial cell line. [Related pubchem assays: 1700 (Primary screen.), 1834 (Confirmation screen.), 1858 (Summary AID.), 1905 (Counterscreen.)]; assay type: functional
Hexokinase HKDC1 = target: T3, Hexokinase HKDC1 (Homo sapiens, UniProt Q2TB90); experiment: inhibition of HKDC1 glucose phosphorylation – biochemical, W721R variant, dose response (AID 504729); assay type: functional
T3 sequence (Q2TB90 whole entry): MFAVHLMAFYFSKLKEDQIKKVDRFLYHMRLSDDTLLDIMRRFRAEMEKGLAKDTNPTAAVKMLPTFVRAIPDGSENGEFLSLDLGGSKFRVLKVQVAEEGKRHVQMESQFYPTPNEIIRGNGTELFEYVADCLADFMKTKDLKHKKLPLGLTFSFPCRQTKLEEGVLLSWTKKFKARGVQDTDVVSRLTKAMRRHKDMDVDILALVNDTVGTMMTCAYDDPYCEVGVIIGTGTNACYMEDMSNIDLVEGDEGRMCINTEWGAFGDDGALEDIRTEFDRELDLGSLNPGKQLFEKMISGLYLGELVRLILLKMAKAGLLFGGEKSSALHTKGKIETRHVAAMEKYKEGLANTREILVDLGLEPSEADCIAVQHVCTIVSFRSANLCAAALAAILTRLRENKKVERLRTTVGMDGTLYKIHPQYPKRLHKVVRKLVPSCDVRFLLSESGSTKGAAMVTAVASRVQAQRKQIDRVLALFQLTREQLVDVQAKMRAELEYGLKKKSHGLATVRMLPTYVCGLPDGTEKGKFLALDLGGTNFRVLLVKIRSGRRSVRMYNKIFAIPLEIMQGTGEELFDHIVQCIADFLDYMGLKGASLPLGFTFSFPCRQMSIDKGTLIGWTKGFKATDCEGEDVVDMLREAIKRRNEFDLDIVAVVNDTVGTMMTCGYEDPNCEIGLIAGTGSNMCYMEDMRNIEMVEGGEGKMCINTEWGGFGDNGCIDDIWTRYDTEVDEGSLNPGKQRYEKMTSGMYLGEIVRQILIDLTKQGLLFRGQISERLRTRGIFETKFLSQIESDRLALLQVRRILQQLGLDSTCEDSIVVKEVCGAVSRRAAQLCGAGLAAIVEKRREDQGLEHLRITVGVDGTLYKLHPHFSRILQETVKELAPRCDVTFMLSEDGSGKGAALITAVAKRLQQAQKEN

[17] = target: T4, Voltage-gated N-type calcium channel alpha-1B subunit/Amyloid beta A4 precursor protein-binding family A member 1 (Homo sapiens, UniProt Q00975+Q02410); assay type: protein assay
[18] = target: T5, Zinc finger protein mex-5 (Caenorhabditis elegans, UniProt Q9XUB2); experiment: potency of MEX-5 RNA-binding blockers – biochemical, C. elegans, fluorescence polarization, dose response (AID 1960)
T5 sequence (Q9XUB2 whole entry): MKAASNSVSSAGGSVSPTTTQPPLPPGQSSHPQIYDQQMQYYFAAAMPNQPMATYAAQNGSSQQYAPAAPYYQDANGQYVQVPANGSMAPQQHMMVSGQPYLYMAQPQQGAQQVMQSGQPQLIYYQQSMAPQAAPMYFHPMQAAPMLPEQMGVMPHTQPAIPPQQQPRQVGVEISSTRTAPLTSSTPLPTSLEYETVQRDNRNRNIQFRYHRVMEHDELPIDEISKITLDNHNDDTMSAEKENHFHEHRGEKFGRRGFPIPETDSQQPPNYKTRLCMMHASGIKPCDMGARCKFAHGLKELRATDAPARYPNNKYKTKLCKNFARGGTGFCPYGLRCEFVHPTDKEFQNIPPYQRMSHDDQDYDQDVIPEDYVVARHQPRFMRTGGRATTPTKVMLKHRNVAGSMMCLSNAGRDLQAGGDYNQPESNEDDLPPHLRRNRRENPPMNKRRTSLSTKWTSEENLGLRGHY

[19] = target: Induced myeloid leukemia cell differentiation protein Mcl-1 (Homo sapiens, UniProt Q07820); experiment: blockers of MCL1 binding to BIM peptide – biochemical, fluorescence polarization, BIM-BH3 peptide, 1536-well, dose response (AID 2217)
[20] = target: T4, Voltage-gated N-type calcium channel alpha-1B subunit/Amyloid beta A4 precursor protein-binding family A member 1; assay type: protein assay; remark: listed apart in the source
[21] = target: T6, RNA-binding protein pos-1 (Caenorhabditis elegans, UniProt G5EF15); experiment: disruptors of C. elegans POS-1 RNA interaction – biochemical, fluorescence polarization, dose response (AID 1964);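 note: purified POS-1 fused to maltose binding protein made in E. coli; potency of compounds blocking POS-1 binding to fluorescent RNA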
T6 sequence (G5EF15 whole entry): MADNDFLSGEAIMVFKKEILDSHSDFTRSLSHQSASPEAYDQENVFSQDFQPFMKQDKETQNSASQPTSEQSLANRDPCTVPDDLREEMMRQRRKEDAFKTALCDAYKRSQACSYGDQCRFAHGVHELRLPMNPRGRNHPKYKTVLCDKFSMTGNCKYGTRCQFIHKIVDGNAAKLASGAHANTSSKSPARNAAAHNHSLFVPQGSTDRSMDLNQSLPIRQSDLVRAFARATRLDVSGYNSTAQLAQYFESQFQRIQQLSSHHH

[22] = target: DNA (cytosine-5)-methyltransferase 1 (Homo sapiens, UniProt P26358); experiment: inhibition of DNA methylation by DNMT1 – biochemical, fluorescent molecular beacon, confirmation (AID 602386); assay type: functional
Bcl-2-like protein 1 = Bcl-2-like protein 1 (Homo sapiens, UniProt Q07817); experiment: blockers of BCLXL peptide binding – biochemical, fluorescence polarization, 1536-well, selectivity assay for MCL1 inhibitor project, dose response (AID 2218)
Bcl-2-like protein 10 = target: T7, Bcl-2-like protein 10 (Homo sapiens, UniProt Q9HD36); experiment: Concentration-response of Bcl-B inhibitors by biochemical FP with TR3 (AID 1243); assay type: functional
T7 sequence (Q9HD36 whole entry): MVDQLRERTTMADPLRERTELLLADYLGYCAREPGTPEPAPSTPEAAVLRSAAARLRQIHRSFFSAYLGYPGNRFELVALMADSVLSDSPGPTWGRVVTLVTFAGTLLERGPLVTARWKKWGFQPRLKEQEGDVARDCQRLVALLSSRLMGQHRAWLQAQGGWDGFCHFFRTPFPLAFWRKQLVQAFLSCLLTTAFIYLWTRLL

[23] = blockers of HIV-1 envelope-mediated cell-cell fusion – cherry-pick, dose response (AID 652057); assay type: functional, cell-based
[24] = off-target signal loss in HeLa-CEM21 co-culture – HeLa F-luc CTL cells, cherry-picked, counter-screen for HIV-1 Env fusion inhibitor project, dose response (AID 652040); assay type: functional, cell-based;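 note: potency for signal decrease marking cytotoxic or nonspecific inhibition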
[25] = target: Neuropeptide Y receptor type 2 (Homo sapiens, UniProt P49146); assay type: functional, cell-based;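 note: HEK293 cells expressing the receptor and a CNG channel; stimulus was NPY near EC95 followed by isoproterenol to raise cAMP; antagonist potency measured as restoring cAMP signal that NPY suppresses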
[26] = viability loss in CEM21 cells – cell-based, plate reader, dry powder, cytotoxicity control, dose response (AID 687026); assay type: functional
[27] = viability loss in CEM21 cells – cell-based, CellTiter-Glo luminescence, cherry-picked, cytotoxicity control for viral fusion inhibitor project, dose response (AID 652042); assay type: functional;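 note: potency for signal decrease meaning cytotoxicity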
[28] = target: Neuropeptide Y receptor type 1 (Homo sapiens, UniProt P25929); assay type: functional;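 note: HEK293 cells with a CNG channel challenged with NPY then isoproterenol; potency as antagonist that reverses NPY suppression of cAMP signal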
Chain of Neuropeptide Y receptor type 1 (P25929 whole entry): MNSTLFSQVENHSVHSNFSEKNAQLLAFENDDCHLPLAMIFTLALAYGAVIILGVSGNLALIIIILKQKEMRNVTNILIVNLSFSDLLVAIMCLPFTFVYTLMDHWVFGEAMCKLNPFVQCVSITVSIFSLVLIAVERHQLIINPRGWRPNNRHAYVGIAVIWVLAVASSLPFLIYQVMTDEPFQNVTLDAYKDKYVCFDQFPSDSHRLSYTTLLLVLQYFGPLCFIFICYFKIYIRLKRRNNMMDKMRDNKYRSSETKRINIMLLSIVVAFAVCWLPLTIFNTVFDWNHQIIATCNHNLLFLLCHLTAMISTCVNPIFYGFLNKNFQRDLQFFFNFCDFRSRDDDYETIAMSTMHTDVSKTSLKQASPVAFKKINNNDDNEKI

T1 sequence (P08659 whole entry): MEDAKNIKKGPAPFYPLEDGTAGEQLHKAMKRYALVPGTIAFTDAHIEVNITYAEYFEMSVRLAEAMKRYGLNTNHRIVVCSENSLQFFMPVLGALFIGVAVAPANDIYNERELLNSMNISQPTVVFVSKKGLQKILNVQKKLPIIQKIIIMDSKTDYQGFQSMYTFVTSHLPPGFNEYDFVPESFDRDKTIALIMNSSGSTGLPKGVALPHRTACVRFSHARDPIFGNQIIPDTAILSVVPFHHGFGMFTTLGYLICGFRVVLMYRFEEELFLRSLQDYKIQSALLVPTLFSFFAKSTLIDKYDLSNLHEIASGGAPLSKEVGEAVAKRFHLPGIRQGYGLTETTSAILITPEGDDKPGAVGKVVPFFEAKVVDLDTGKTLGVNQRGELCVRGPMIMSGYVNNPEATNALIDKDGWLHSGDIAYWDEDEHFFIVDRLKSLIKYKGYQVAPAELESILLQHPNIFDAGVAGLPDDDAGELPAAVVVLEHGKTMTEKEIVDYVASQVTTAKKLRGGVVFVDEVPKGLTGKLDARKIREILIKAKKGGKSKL
T4 sequence (Q00975 whole entry): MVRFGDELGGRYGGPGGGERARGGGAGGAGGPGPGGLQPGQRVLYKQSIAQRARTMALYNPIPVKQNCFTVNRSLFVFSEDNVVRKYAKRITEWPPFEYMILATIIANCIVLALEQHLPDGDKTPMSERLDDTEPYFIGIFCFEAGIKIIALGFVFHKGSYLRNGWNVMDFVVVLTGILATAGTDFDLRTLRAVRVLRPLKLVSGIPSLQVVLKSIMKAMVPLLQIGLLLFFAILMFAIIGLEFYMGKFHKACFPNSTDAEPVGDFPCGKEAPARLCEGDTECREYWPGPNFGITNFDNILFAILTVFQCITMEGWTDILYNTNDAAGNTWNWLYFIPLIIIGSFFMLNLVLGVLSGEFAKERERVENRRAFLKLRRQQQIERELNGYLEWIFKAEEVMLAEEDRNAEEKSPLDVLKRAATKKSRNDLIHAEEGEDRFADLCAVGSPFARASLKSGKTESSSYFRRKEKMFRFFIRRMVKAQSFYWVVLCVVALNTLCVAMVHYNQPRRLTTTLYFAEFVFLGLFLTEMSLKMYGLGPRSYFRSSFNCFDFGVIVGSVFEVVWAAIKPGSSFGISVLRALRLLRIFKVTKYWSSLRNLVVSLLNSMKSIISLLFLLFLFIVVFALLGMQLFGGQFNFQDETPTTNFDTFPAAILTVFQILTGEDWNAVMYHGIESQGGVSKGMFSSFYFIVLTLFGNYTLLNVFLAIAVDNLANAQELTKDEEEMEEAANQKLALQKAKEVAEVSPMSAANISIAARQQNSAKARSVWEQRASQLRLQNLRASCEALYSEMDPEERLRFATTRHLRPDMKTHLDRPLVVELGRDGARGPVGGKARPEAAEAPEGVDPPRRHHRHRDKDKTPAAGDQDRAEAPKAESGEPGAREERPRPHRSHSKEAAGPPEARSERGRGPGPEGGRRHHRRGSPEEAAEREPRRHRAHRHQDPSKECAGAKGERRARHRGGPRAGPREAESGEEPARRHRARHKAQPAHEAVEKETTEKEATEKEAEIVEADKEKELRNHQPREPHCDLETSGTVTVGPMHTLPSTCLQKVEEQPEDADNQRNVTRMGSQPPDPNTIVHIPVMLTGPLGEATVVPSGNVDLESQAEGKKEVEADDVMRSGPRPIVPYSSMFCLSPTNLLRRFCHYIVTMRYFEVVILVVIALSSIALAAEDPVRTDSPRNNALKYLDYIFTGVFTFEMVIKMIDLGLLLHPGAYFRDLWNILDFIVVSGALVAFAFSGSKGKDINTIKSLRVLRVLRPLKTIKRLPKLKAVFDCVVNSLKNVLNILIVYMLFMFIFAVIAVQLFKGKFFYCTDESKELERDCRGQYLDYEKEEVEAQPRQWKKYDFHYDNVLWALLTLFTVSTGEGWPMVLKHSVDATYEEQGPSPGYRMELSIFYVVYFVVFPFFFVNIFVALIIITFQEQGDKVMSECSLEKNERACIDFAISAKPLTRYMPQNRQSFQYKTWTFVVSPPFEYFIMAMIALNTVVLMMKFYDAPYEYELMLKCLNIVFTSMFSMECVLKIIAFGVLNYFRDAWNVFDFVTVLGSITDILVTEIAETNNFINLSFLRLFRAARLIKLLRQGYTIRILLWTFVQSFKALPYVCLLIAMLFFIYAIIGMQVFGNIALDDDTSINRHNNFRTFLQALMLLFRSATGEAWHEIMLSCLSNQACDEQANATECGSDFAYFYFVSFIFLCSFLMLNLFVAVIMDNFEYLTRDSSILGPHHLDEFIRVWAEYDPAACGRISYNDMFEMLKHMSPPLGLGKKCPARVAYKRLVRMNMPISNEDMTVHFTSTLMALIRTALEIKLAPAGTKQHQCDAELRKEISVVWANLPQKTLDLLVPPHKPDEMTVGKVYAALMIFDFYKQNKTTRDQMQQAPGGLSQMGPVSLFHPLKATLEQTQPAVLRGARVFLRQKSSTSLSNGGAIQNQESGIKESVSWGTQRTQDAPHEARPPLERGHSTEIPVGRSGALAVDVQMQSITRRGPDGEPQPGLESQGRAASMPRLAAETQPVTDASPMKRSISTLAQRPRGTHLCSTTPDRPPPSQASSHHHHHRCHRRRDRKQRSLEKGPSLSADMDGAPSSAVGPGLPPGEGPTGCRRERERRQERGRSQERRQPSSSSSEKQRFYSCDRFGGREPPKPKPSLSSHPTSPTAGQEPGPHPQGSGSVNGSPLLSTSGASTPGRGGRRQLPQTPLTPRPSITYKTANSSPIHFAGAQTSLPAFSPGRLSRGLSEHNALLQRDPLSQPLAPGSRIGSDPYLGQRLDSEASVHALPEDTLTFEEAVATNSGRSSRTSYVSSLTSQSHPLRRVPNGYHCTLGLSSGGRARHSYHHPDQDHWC
T4 sequence (Q02410 whole entry): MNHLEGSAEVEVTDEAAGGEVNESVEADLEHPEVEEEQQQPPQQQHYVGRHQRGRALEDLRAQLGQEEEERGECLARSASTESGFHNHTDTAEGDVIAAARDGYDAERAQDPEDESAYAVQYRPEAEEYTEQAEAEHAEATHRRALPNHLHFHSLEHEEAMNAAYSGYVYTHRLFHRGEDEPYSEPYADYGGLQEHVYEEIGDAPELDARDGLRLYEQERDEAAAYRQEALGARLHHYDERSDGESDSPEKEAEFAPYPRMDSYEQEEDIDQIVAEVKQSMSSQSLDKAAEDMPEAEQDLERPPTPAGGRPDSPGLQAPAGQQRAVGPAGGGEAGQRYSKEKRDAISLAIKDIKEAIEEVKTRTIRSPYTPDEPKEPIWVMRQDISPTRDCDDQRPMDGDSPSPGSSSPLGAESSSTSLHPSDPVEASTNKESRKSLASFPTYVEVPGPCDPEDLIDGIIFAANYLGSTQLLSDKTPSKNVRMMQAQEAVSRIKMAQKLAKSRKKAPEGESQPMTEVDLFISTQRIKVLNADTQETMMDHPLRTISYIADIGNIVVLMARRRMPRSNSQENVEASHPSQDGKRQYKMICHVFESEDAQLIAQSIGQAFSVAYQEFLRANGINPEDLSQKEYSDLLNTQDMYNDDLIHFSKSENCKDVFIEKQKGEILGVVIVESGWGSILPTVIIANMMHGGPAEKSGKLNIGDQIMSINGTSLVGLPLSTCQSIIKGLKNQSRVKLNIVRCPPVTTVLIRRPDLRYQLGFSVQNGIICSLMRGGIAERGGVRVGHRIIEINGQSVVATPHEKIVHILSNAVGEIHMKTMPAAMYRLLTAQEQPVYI
Chain of Bcl-2-like protein 1 (Q07817 whole entry): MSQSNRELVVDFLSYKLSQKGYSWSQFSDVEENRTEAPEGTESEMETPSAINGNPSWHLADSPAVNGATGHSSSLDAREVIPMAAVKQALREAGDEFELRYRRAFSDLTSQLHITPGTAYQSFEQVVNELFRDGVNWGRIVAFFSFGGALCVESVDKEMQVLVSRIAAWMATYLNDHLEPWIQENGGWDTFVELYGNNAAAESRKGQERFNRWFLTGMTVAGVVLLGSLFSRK
Chain of 5-hydroxytryptamine receptor 1E (P28566 whole entry): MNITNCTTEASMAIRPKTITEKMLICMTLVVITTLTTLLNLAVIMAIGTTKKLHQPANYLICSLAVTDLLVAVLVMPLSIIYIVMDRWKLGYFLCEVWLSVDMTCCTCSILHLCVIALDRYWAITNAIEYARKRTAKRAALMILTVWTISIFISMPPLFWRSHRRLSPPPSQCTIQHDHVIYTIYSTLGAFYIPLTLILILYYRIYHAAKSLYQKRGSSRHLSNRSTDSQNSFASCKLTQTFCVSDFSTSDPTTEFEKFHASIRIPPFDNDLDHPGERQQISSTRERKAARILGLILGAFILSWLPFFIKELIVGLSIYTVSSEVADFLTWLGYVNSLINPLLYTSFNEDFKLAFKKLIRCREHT
Chain of Induced myeloid leukemia cell differentiation protein Mcl-1 (Q07820 whole entry): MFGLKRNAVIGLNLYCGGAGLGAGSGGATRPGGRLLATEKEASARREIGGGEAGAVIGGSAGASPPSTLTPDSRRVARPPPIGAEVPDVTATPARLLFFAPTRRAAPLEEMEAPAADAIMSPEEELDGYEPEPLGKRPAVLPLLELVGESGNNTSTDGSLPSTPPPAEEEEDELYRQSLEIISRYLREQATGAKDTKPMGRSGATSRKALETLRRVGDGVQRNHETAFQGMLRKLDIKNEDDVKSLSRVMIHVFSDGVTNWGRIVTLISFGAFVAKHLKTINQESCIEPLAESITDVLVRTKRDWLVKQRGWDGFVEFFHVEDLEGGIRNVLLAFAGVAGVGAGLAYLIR

## Cc1ccsc1/C=C1\CCc2ccccc2C1=O
[1]
  EC50: 0.518 µM (active)
[2]
  EC50: 2.43 µM (active)
[3]
  EC50: 0.89 µM (active)
HT-1080
  EC50: > 50 µM (not active)

## CC(C)(C)c1ccc(OCC(=O)NNC(=S)NC(=O)c2ccccc2[N+](=O)[O-])c(Br)c1
Vero
  CC50: > 40 µM (active)
[4]
  IC50: > 50 µM (active)
Genome polyprotein
  IC50: 56 µM (active)

## COc1ccc(CC(=O)Nc2cccc(-c3nnc(-c4cccc(C)c4)o3)c2)cc1OC
[5]
  EC50: 29.5 µM (inactive)
INS1
  AC50: 2.47 µM (active)
[6]
  IC50: 1.76 µM (active)
[7]
  EC50: 6.16 µM (active)
[8]
  AC50: 8.16 µM (active)
H4
  EC50: 118 µM (active)
[9]
  IC50: 2.35 µM (active)
[10]
  AC50: 47.6 µM (active)
[11]
  IC50: 5.21 µM (active)
[12]
  EC50: 15 µM (active)
[13]
  AC50: 10.5 µM (active)

## COc1cc2[nH]c(=S)n(CCCC(=O)N3CCN(c4cccc(Cl)c4)CC3)c(=O)c2cc1OC
Estrogen receptor
  IC50: 2.36 µM (not active)

## CN(C)c1ccc(/C=C/c2nc(O)c3ccccc3n2)cc1
[14]
  EC50: 4.08 µM (active)
[15]
  EC50: 5.96 µM (active)
[16]
  IC50: 32.3 µM (not active)

## O=C(CNC(=O)/C=C/c1ccco1)N=Nc1c(O)[nH]c2ccccc12
Hexokinase HKDC1
  IC50: 25.3 µM (inactive)
[17]
  IC50: > 56.8 µM (not active)
[18]
  EC50: 5.49 µM (active)
[19]
  IC50: 9.7 µM (active)
[20]
  IC50: 4.97 µM (active)
[21]
  EC50: 13.1 µM (inconclusive)
[22]
  IC50: 3.25 µM (active)
Bcl-2-like protein 1
  IC50: 37.1 µM (not active)

## Cc1ccc(C(=O)c2coc3c2C(=O)C(=O)C(Cl)=C3Cl)cc1
Bcl-2-like protein 10
  EC50: 6.17 µM (active)

## COc1ccccc1CCNCc1ccc(OC)c(OCc2ccccc2)c1
[23]
  AC50: 2.11 µM (active)
[24]
  AC50: > 70 µM (inactive)
[25]
  IC50: 1.97 µM (active)
[26]
  AC50: > 70 µM (inactive)
[27]
  AC50: 54.1 µM (active)
[28]
  IC50: 9.05 µM (active)
